As usually defined, the EC50 is the concentration at which the effect is half-maximal. Read a high EC50 as a less potent agent. The IC50 is the point on the concentration scale where inhibition reaches its midpoint. A high value points to weaker potency in that assay. The Kb is the affinity of an antagonist, worked out from how it opposes an agonist. A lower Kb goes with a more potent antagonist.

The results in this text go back to patent US7335723B2, “Melanin-concentrating hormone antagonists” (priority 2001, dated 2008).

Experiment [1] deals with T1, rat MCH-1R (Rattus norvegicus, UniProt P97639). The experiment can be described thus: Aequorin bioluminescence functional assay, MCH-1R agonist activity. The conditions noted are these: for MCH-1R Agonist Activation %: 293-AEQ17 cells expressing rat MCH-1R.
A further experiment concerns the target human MCH-2R (Homo sapiens, UniProt Q969V1). In words: Aequorin bioluminescence functional assay, MCH-2R agonist activity. As to conditions: for MCH-2R Agonist Activation %: 293-AEQ17 cells expressing human MCH-2R.
The target of another experiment is human MCH-1R (Homo sapiens, UniProt Q99705). In words: MCH-1R binding assay, inhibition of [125I]-human MCH binding to membranes.
For experiment [2], the target named is T1, rat MCH-1R. The experiment can be described thus: Antagonist assay, 293-AEQ17 cells expressing rat MCH-1R. The arrangement: expressed in transfected cells; host or cells: 293-AEQ17 (aequorin-expressing HEK-293 reporter line). As to conditions: for Kb: determined per Trends in Pharmacol. Sci. 14:237-239, 1993. It counts as cell-based. The procedure: Cells were grown in DMEM (high glucose) supplemented with 10% FBS (Hyclone), 500 μg/ml G418, 200 μg/ml hygromycin and 25 mM HEPES in T75 flasks.
The assay itself involved charging apoaequorin with coelenterazine cp(Molecular Probes, C-14260) and was performed as follows:
1. Confluent T75 flasks are rinsed 1× with 12 ml Hams F12 medium+300 μM glutathione+0.1% FBS.
2. The cells were charged by adding 8 ml Hams F12+0.1% FBS+300 μM glutathione+10 μM coelenterazine, incubate at 37° C. for 1 hour.
4. ECB (6 ml) is added to the flask and the cells are dissociated with a rubber-tipped scraper, centrifuged for 5 minutes at 2500 rpm and the cell pellet resuspended in 5 ml ECB. The cells are counted and diluted to 5×10^5/ml.
Binding and agonist activity at the MCH-1R and MCH-2R was determined as described in Examples 2 and 3. Antagonist IC50 was determined as described in Example 4. Kb was determined using the procedures described in Trends in Pharmacol. Sci. 14:237-239, 1993.

Where a SMILES comes first, the peptide text is derived from it. Bridges are numbered along the chain shown (N, C = ends). [ ]: non-standard residue; d: D form. The star is where a group is joined. Pentanoyl(5-guanidino) = NC(N)=NCCCCC(=O)*; Nle = CCCC[C@H](N)C(=O)O; Ava = NCCCCC(=O)O

human MCH-1R, sequence (Q99705 whole entry): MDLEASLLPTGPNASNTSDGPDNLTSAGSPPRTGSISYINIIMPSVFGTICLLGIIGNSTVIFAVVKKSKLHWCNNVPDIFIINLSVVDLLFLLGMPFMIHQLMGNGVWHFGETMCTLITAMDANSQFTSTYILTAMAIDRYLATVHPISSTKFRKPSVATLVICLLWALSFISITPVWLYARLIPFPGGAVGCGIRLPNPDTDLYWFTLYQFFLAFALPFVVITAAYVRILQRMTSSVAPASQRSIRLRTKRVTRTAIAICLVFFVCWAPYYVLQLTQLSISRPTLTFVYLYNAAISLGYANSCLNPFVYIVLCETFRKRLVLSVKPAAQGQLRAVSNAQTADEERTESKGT
T1 sequence (P97639 whole entry): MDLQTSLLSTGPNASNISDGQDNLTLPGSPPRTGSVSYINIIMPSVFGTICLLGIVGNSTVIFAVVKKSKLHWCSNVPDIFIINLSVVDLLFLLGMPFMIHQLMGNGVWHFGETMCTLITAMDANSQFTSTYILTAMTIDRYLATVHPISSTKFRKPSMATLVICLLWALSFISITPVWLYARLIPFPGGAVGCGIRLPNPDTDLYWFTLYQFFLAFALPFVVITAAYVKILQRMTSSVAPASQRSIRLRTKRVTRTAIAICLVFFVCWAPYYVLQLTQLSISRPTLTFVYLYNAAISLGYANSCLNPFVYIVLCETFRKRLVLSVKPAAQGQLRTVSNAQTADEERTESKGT
human MCH-2R, sequence (Q969V1 whole entry): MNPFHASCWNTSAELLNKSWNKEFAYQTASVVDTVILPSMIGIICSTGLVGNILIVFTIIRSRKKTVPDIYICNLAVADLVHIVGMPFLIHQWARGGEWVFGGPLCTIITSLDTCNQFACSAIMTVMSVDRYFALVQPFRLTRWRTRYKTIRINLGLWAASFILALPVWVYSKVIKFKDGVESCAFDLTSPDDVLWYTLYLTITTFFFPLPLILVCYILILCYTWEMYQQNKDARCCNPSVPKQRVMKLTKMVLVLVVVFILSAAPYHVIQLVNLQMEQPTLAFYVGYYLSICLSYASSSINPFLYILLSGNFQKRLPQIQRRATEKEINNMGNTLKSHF
Protocol for human MCH-1R: Cell membranes were prepared on ice. Each T-75 flask was rinsed twice with 10 ml of Enzyme-free Cell Dissociation Buffer (Specialty Media, Lavallette, N.J.), and the cell monolayer was detached in an additional 10 ml of Enzyme-free Cell Dissociation Buffer by incubation at room temperature for 10 minutes. Dissociated cells were centrifuged (500×g for 10 minutes at 4° C.), resuspended in 5 ml homogenization buffer (10 mM Tris-HCl, pH 7.4, 0.01 mM Pefabloc, 10 μM phosphoramidon, 40 μg/ml bacitracin) and then homogenized using a glass homogenizer (10-15 strokes). The homogenate was centrifuged for 10 minutes (1,000×g at 4° C.). The resulting supernatant was then centrifuged at 38,700×g for 15 minutes at 4° C. Pelleted membranes were resuspended (passed through 25 gauge needle 5 times), snap-frozen on liquid nitrogen, and stored at −80° C. until use.
Bound radioligand was separated by rapid vacuum filtration (Packard Filtermate 96-well cell harvester) through GF/C filters pretreated for 1 hour with 1% polyethylenimine. After application of the membrane suspension to the filter, the filters were washed 3 times with 3 ml each of ice-cold 50 mM Tris-HCl, pH 7.4, 10 mM MgCl2, 2 mM EDTA, 0.04% Tween 20 and the bound radioactivity on the filters was quantitated by scintillation counting (TopCount device).
For the SPA-based assay, WGA-PVT beads (NEN Life Sciences Products) were resuspended in Dulbecco's PBS with calcium and magnesium (500 mg beads in 4 ml PBS). […] The suspension was mixed gently for 20 minutes, 12.3 ml of assay buffer and protease inhibitors were added (final concentration given): 2 μg/ml leupeptin, 10 μM phosphoramidon, 40 μg/ml bacitracin, 5 μg/ml aprotinin, 0.1 mM Pefabloc.
Coated beads were kept on ice until use.

Turning to `CSCC[C@@H]1NC(=O)[C@@H](NC(=O)CCCCNC(=N)N)CSSC[C@@H](C(N)=O)NC(=O)CCCCNC(=O)CCCCNC(=O)[C@H](Cc2ccc(O)cc2)NC(=O)[C@H](C(C)C)NC(=O)[C@H](CCCNC(=N)N)NC(=O)CNC(=O)[C@H](CC(C)C)NC1=O` [SEQ. ID. NO. 11], on rat MCH-1R [1], the EC50 was more than 10000 nM and the “MCH-1R Agonist Activation %” value amounted to 3%. Besides, on human MCH-2R, the EC50 was more than 10000 nM and the “MCH-2R Agonist Activation %” value is 91%. Further, the IC50 at human MCH-1R is 3 nM. At rat MCH-1R [2], this compound displayed an IC50 of 2.9 nM and a Kb of 1.25 nM.

For the compound `CSCC[C@@H]1NC(=O)[C@@H](NC(=O)CCCCNC(=N)N)CSSC[C@@H](C(N)=O)NC(=O)CCCNC(=O)CCCNC(=O)[C@H](Cc2ccc(O)cc2)NC(=O)[C@H](C(C)C)NC(=O)[C@H](CCCNC(=N)N)NC(=O)CNC(=O)[C@H](CC(C)C)NC1=O` [SEQ. ID. NO. 13], at rat MCH-1R [1], the half-maximal effective concentration (EC50) is more than 10000 nM and the “MCH-1R Agonist Activation %” value amounted to 3.5%. For the same compound, on human MCH-2R, the EC50 is more than 10000 nM and the “MCH-2R Agonist Activation %” value is 35%. The IC50 at human MCH-1R is 49 nM. For the same compound, at rat MCH-1R [2], the IC50 stood at 6.84 nM and the Kb worked out at 3 nM.

For `CSCC[C@@H]1NC(=O)[C@@H](NC(=O)CCCCNC(=N)N)CSSC[C@@H](C(N)=O)NC(=O)CCNC(=O)CCNC(=O)[C@H](Cc2ccc(O)cc2)NC(=O)[C@H](C(C)C)NC(=O)[C@H](CCCNC(=N)N)NC(=O)CNC(=O)[C@H](CC(C)C)NC1=O` [SEQ. ID. NO. 14], at rat MCH-1R [1], the EC50 was more than 10000 nM and the “MCH-1R Agonist Activation %” value is on record as 3.6%. Besides, at human MCH-2R, the EC50 was more than 10000 nM and the “MCH-2R Agonist Activation %” value came out at 32%. The same compound yielded an IC50 at human MCH-1R of 176 nM. At rat MCH-1R [2], this compound gave an IC50 of 6.8 nM and an antagonist equilibrium constant (Kb) of 3 nM.

Take `CCCC[C@@H]1NC(=O)[C@@H](NC(=O)CCCCNC(=N)N)CSSC[C@@H](C(N)=O)NC(=O)CCCCNC(=O)CCCCNC(=O)[C@H](Cc2ccc(O)cc2)NC(=O)[C@H](C(C)C)NC(=O)[C@H](CCCNC(=N)N)NC(=O)CNC(=O)[C@H](CC(C)C)NC1=O` [SEQ. ID. NO. 16] ({Pentanoyl(5-guanidino)}-C[Nle]LGRVY[Ava][Ava]C-NH2; disulfide 1-10; C-terminus assumed): on rat MCH-1R [1], the EC50 was more than 10000 nM and the “MCH-1R Agonist Activation %” value is given as 3%. Further, on human MCH-2R, the EC50 was more than 10000 nM and the “MCH-2R Agonist Activation %” value came to 59%. For the same compound, on human MCH-1R, the IC50 came to 11 nM. Also, at rat MCH-1R [2], the IC50 is 13.8 nM and the Kb was determined as 6 nM.

Regarding `CCCC[C@@H]1NC(=O)[C@@H](NC(=O)CCCCNC(=N)N)CSSC[C@@H](C(=O)O)NC(=O)CCCCNC(=O)CCCCNC(=O)[C@H](Cc2ccc(O)cc2)NC(=O)[C@H](C)NC(=O)[C@H](CCCNC(=N)N)NC(=O)CCCCNC(=O)CCCCNC1=O` [SEQ. ID. NO. 35] ({Pentanoyl(5-guanidino)}-C[Nle][Ava][Ava]RAY[Ava][Ava]C-OH; disulfide 1-10), at rat MCH-1R [1], the EC50 was more than 10000 nM and the “MCH-1R Agonist Activation %” value is on record as 0.1%. Moreover, on human MCH-2R, the half-maximal effective concentration (EC50) is more than 10000 nM and the “MCH-2R Agonist Activation %” value came out at 25%. The same compound yielded an IC50 at human MCH-1R of more than 1000 nM.

`CC(C)[C@@H]1NC(=O)[C@H](CCCNC(=N)N)NC(=O)CCCCNC(=O)CCCCNC(=O)CCCCNC(=O)[C@@H](NC(=O)CCCCNC(=N)N)CSSC[C@@H](C(N)=O)NC(=O)CCCCNC(=O)CCCCNC(=O)[C@H](Cc2ccc(O)cc2)NC1=O` [SEQ. ID. NO. 36]: on rat MCH-1R [1], the EC50 was more than 10000 nM and the “MCH-1R Agonist Activation %” value was determined as 0.1%. For the same compound, on human MCH-2R, the EC50 is more than 10000 nM and the “MCH-2R Agonist Activation %” value was found to be 24%. The same compound came in with an IC50 at human MCH-1R of more than 1000 nM.
